Data published in patent US4278686A, “Carbapenum derivatives, a process for their preparation and their use in pharmaceutical compositions and intermediates” (Beecham Group Limited, priority 1978, dated 1981).
Like-named read-outs stand apart in the source and are kept apart here.

Legend:
Assay type in all cases: cell-based
Streptococcus faecalis I = experiment: minimum inhibitory concentration, Streptococcus faecalis I (DST agar+10% horse blood); conditions: Enterococcus faecalis
Experimental: (§1) The minimum inhibitory concentrations (MIC) of the compound (e54) was determined using a standard DST agar+10% horse blood substrate. The tests used an undiluted inoculum of bacteria. […]
(§2) The minimum inhibitory concentrations (MIC) of this compound was determined using a standard DST agar+10% horse blood substrate.
(§3) The minimum inhibitory concentrations (MIC) of this compound was determined using a standard DST agar+10% horse blood substrate. The tests used an undiluted inoculum of bacteria.

Proteus mirabilis C977 = experiment: minimum inhibitory concentration, Proteus mirabilis C977 (DST agar+10% horse blood)
Experimental: as §1, §2, §3

[1] = test system: Staphylococcus aureus 1517; experiment: minimum inhibitory concentration, Staphylococcus aureus 1517 (DST agar+10% horse blood)
Experimental: as §1, §2, §3

[2] = test system: Staphylococcus aureus Oxford; experiment: minimum inhibitory concentration, Staphylococcus aureus Oxford (DST agar+10% horse blood)
Experimental: as §1, §2, §3

Citrobacter freundii E8 = experiment: minimum inhibitory concentration, Citrobacter freundii E8 (DST agar+10% horse blood)
Experimental: as §1, §2, §3

[3] = test system: Staphylococcus aureus Russell; experiment: minimum inhibitory concentration, Staphylococcus aureus Russell (DST agar+10% horse blood)
Experimental: as §1, §2, §3

Escherichia coli 0111 = experiment: minimum inhibitory concentration, Escherichia coli 0111 (DST agar+10% horse blood)
Experimental: as §1, §2, §3

[4] = test system: Salmonella typhimurium CT10; experiment: minimum inhibitory concentration, Salmonella typhimurium CT10 (DST agar+10% horse blood); conditions: Salmonella enterica
Experimental: as §1, §2, §3

Klebsiella aerogenes A = experiment: minimum inhibitory concentration, Klebsiella aerogenes A (DST agar+10% horse blood)
Experimental: as §1, §2, §3

Proteus vulgaris WO91 = experiment: minimum inhibitory concentration, Proteus vulgaris WO91 (DST agar+10% horse blood)
Experimental: as §1, §2, §3

Enterobacter cloacae N1 = experiment: minimum inhibitory concentration, Enterobacter cloacae N1 (DST agar+10% horse blood); conditions: Enterobacter cloacae, Enterobactor cloacae N1
Experimental: as §1, §2, §3

Proteus rettgeri WM16 = experiment: minimum inhibitory concentration, Proteus rettgeri WM16 (DST agar+10% horse blood); conditions: Providencia rettgeri
Experimental: as §1, §2, §3

Escherichia coli JT 39 = experiment: minimum inhibitory concentration, Escherichia coli JT 39 (DST agar+10% horse blood); conditions: JT39
Experimental: as §1, §2, §3

E. coli ESS = experiment: minimum inhibitory concentration, E. coli ESS (DST agar+10% horse blood); conditions: Escherichia coli
Experimental: as §1, §2, §3

Serratia marcescens US20 = experiment: minimum inhibitory concentration, Serratia marcescens US20 (DST agar+10% horse blood)
Experimental: as §1, §2, §3

Bacillus subtilis A = experiment: minimum inhibitory concentration, Bacillus subtilis A (DST agar+10% horse blood)
Experimental: as §1, §2, §3

Pseudomonas aeruginosa A = experiment: minimum inhibitory concentration, Pseudomonas aeruginosa A (DST agar+10% horse blood)
Experimental: as §1, §2, §3

Proteus morganii I580 = experiment: minimum inhibitory concentration, Proteus morganii I580 (DST agar+10% horse blood); conditions: Morganella morganii
Experimental: The minimum inhibitory concentrations (MIC) of the compound (e54) was determined using a standard DST agar+10% horse blood substrate. The tests used an undiluted inoculum of bacteria.
Sodium (5R,6S)-3-(2-acetamidoethylthio)--6-ethyl-7-oxo-1-azabicyclo[3.2.0]-hept-2-ene-2-carboxylate [drawing 60] p-Methoxycarbonylbenzyl (5R,6S)-3-(2-acetamidoethylthio)-6-ethyl-7-oxo-1-azabicyclo[3.2.0]hept-2-ene-2-carboxylate (e58) (18 mg) was added to the cathodic compartment of an H-type divided two-compartment electrochemical cell, with a mercury cathode and a platinum anode. The cell contained degassed 0.1 M n-Bu4 NI in dimethylformamide as electrolyte. The volume of the catholyte was about 15 ml [glacial acetic acid (about 10 mg) added] and the volume of the anolyte was about 8 ml. A potentiostat was employed to fix the potential of the cathode at -1.9 V with respect to the standard calomel electrode, and the initial current, about 56 mA, fell to about 15 mA after about 15 min. The catholyte was removed from the cell and the solvent was evaporated in vacuo. The residue was taken up in CH2 Cl2 (10 ml) and washed with water (10 ml). The aqueous phase was separated and washed with CH2 Cl2. The aqueous phase, containing the tetrabutylammonium salt corresponding to (e63) was passed through an Amberlite IR 120 (Na form) column (17×1 cm) and the eluate was reduced to low volume by evaporation in vacuo. The residue was passed through a Biogel P-2 column, to yield fractions containing sodium (5R,6S)-3-(2-acetamidoethylthio)-6-ethyl-7-oxo-1-azabicyclo[3.2.0]hept-2-ene-2-carboxylate (e63) having λmax 298 nm. The minimum inhibitory concentrations (MIC) of this compound was determined using a standard DST agar+10% horse blood substrate.
Sodium (5R,6S)-3-[(E)-2-acetamidoethenylthio]-6-ethyl-7-oxo-1-azabicyclo[3.2.0]hept-2-ene-2-carboxylate [drawing 68] p-Methoxycarbonylbenzyl (5R,6S)-3-[(E)-2-acetamidoethenylthio]-6-ethyl-7-oxo-1-azabicyclo[3.2.0]hept-2-ene-2-carboxylate (e72) (64 mg) in solution in 0.1 M (n-C4 H9)4 NBF4 in dry DMF was added to the cathodic compartment of a divided cylindrical electrochemical cell, with a mercury cathode and platinum anode. The volume of electrolyte in the cathodic compartment was about 25 ml, and in the anodic compartment about 10 ml. Acetic acid (12 mg) was added to the cathodic compartment and ethanol (250 mg) was added to the anodic compartment. The cell was degassed by passing argon for 30 min. The potentiostat was engaged to maintain the potential of the cathode at -1.9 V w.r.t. standard calomel electrode. The initial current (40 mA) fell to about 5 mA after 25 min. The solvent was removed from the catholyte by evaporation in vacuo and the residual oil was taken up in CH2 Cl2 (20 ml) and extracted with water (15 ml) containing sodium tetrafluoroborate (100 mg). The aqueous extract was washed with CH2 Cl2 and then passed down an Amberlite 1R 120 column (1×20 cm) in the sodium form. The volume of the eluate was reduced to about 5 ml by evaporation in vacuo and loaded onto a Biogel P-2 column (18×3 cm). Elution with water yielded fractions containing sodium (5R,6S)-3-[(E)-2-acetamidoethenylthio]-6-ethyl-7-oxo-1-azabicyclo[3.2.0]hept-2-ene-2-carboxylate (e73) λmax 308 nm. The minimum inhibitory concentrations (MIC) of this compound was determined using a standard DST agar+10% horse blood substrate.
Sodium (5R,6R)-3-[(E)-2-acetamidoethenylthio]-6-(1-benzylthioethyl)-7-oxo-1-azabicyclo[3.2.0]hept-2-ene-2-carboxylate [drawing 87] The least polar crystalline isomer of the ester (e93) (40 mg) obtained in Example 70 was added to a mixture of 5% Pd on C (60 mg) in 20% aqueous dioxan (5 ml) which had been prehydrogenated for 0.5 h. Hydrogenation was continued for 4 h and the mixture was filtered through Celite after adding NaHCO3 (7 mg) and water (10 ml). The solution was concentrated to a volume of about 10 ml and was then washed with ethyl acetate (3×30 ml). […]

Shigella sonnei MB 11967 = experiment: minimum inhibitory concentration, Shigella sonnei MB 11967 (DST agar+10% horse blood); conditions: MB11967
Experimental: as §1, §2, §3

[5] = test system: Streptococcus pneumoniae CN33; experiment: minimum inhibitory concentration, Streptococcus pneumoniae CN33 (DST agar+10% horse blood)
Experimental: as §1, §2, §3

[6] = test system: Streptococcus pyogenes CN10; experiment: minimum inhibitory concentration, Streptococcus pyogenes CN10 (DST agar+10% horse blood)
Experimental: as §1, §2, §3

[7] = Proteus morganii I580, DST agar+10% horse blood, read-out: MIC

| Compound | MIC (Streptococcus faecalis I) [µg/mL] | MIC (Proteus mirabilis C977) [µg/mL] | MIC [1] [µg/mL] | MIC [2] [µg/mL] | MIC (Citrobacter freundii E8) [µg/mL] | MIC [3] [µg/mL] | MIC (Escherichia coli 0111) [µg/mL] | MIC [4] [µg/mL] | MIC (Klebsiella aerogenes A) [µg/mL] | MIC (Proteus vulgaris WO91) [µg/mL] | MIC (Enterobacter cloacae N1) [µg/mL] | MIC (Proteus rettgeri WM16) [µg/mL] | MIC (Escherichia coli JT 39) [µg/mL] | MIC (E. coli ESS) [µg/mL] | MIC (Serratia marcescens US20) [µg/mL] | MIC (Bacillus subtilis A) [µg/mL] | MIC (Pseudomonas aeruginosa A) [µg/mL] | MIC (Shigella sonnei MB 11967) [µg/mL] | MIC [5] [µg/mL] | MIC [6] [µg/mL] | also measured |
| --- | --- | --- | --- | --- | --- | --- | --- | --- | --- | --- | --- | --- | --- | --- | --- | --- | --- | --- | --- | --- | --- |
| CC[C@@H]1C(=O)N2C(C(=O)[O-])=C(S/C=C/NC(C)=O)C[C@H]12.[Na+] [e73, sodium (5R,6S)-3-[(E)-2-acetamidoethenylthio]-6-ethyl-7-oxo-1-azabicyclo[3.2.0]hept-2-ene-2-carboxylate] | 40 | 10 | > 40 | 0.6 | 2.5 | 2.5 | 2.5 | 1.2 | 2.5 | 10 | 2.5 | 10 | 10 | 0.3 | 5 | 1.2 | > 40 | 2.5 | ≤ 0.1 | – | MIC (Proteus morganii I580; [7]): 5 µg/mL |
| CC(=O)N/C=C/SC1=C(C(=O)[O-])N2C(=O)[C@H](C(C)SCc3ccccc3)[C@H]2C1.[Na+] (stereo partly drawn) [e94, Sodium (5R,6R)-3-[(E)-2-acetamidoethenylthio]-6-(1-benzylthioethyl)-7-oxo-1-azabicyclo[3.2.0]hept-2-ene-2-carboxylate] | 25 | 12.5 | 50 | 0.4 | 6.2 | 0.8 | 3.1 | 1.6 | 3.1 | 6.2 | 3.1 | 6.2 | 3.1 | 0.4 | 6.2 | 1.6 | 50 | 1.6 | 0.2 | 0.4 | MIC (Proteus morganii I580; [7]): 6.2 µg/mL |
| C=CCSC(C)[C@H]1C(=O)N2C(C(=O)[O-])=C(S/C=C/NC(C)=O)C[C@H]12.[Na+] (stereo partly drawn) [e96, Sodium (5R,6R)-3-[(E)-2-acetamidoethenylthio]-6-(1-allylthioethyl)-7-oxo-1-azabicyclo[3.2.0]hept-2-ene-2-carboxylate] | 50 | 100 | 12.5 | 0.8 | 50 | 1.6 | 50 | 25 | 6.2 | 25 | 25 | 50 | 25 | 1.6 | 50 | 1.6 | > 100 | 25 | ≤ 0.2 | 0.4 | MIC (Proteus morganii I580; I580): 50 µg/mL |
| CC(=O)N/C=C/SC1=C(C(=O)[O-])N2C(=O)[C@H](C(C)SCCNC(C)=O)[C@H]2C1.[Na+] (stereo partly drawn) [e98, Sodium (5R,6R)-3-[(E)-2-acetamidoethenylthio]-6-[1-(2-acetamidoethylthio)ethyl]-7-oxo-1-azabicyclo[3.2.0]hept-2-ene-2-carboxylate] | 50 | 12.5 | 12.5 | 1.2 | 5 | 2.5 | 5 | 2.5 | 5 | 12.5 | 5 | 12.5 | 5 | 1.2 | 12.5 | 2.5 | > 50 | 5 | 0.2 | 0.5 | MIC (Proteus morganii I580; I580): 25 µg/mL |
